Data from article PMC8198049, “Synthesis and Evaluation of the Tetracyclic Ring-System of Isocryptolepine and Regioisomers for Antimalarial, Antiproliferative and Antimicrobial Activities” (Molecules, 2021).
≈ marks a conversion by molar mass, not a printed value.

How the values were obtained:
[1] = test system: P. aeruginosa (ATCC 27853); assay: Bacterial growth inhibition assay; format: cell-based, Pseudomonas aeruginosa; design: unit not given beside the values; conditions: reference compound
Procedure: (§1) The prepared samples were tested for in vitro antimicrobial activity against E. faecalis, E. coli, P. aeruginosa, S. aureus, Streptococcus agalactiae and S. epidermis using gentamycin as a reference compound.
(§2) To determine and quantify antimicrobial activity, a bacteria growth inhibition assay in liquid media was executed. Compounds 2–3, 4, 8–10, 13–14, 16, 18, and 20 were tested against Staphylococcus aureus (ATCC 25923), Escherichia coli (ATCC 259233), Enterococcus faecialis (ATCC 29122), Pseudomonas aeruginosa (ATCC 27853) and Streptococcus agalactiae (ATCC 12386); all strains from LGC Standards (Teddington, UK). S. aureus, E. coli, and P. aeruginosa were grown in Muller Hinton broth (275730, Becton, Franklin Lakes, NJ, USA). E. faecalis and S. agalactiae were cultured in brain hearth infusion broth (53286, Sigma, St Louise, MO, USA). Fresh bacterial colonies were transferred in the respective medium and incubated at 37 °C overnight. The bacterial cultures were diluted to a culture density representing the log phase and µL/well were pipetted into a 96-well microtiter plate (734–2097, NunclonTM, Thermo Scientific, Waltham, MA, USA). […] After adding the samples to the plates, they were incubated overnight at 37 °C and the growth was determined by measuring the optical density at λ = 600 nm (OD600) with a 1420 Multilabel Counter VICTOR3TM (Perkin Elmer, Waltham, MA, USA). […]

[2] = test system: Streptococcus agalactiae (ATCC 12386); assay: Bacterial growth inhibition assay; format: cell-based; design: MIC (Gentamycin, unit not given): unit not given beside the values; conditions: for MIC: ATCC12386
Procedure: as §1
(§3) To determine and quantify antimicrobial activity, a bacteria growth inhibition assay in liquid media was executed. Compounds 2–3, 4, 8–10, 13–14, 16, 18, and 20 were tested against Staphylococcus aureus (ATCC 25923), Escherichia coli (ATCC 259233), Enterococcus faecialis (ATCC 29122), Pseudomonas aeruginosa (ATCC 27853) and Streptococcus agalactiae (ATCC 12386); all strains from LGC Standards (Teddington, UK). S. aureus, E. coli, and P. aeruginosa were grown in Muller Hinton broth (275730, Becton, Franklin Lakes, NJ, USA). E. faecalis and S. agalactiae were cultured in brain hearth infusion broth (53286, Sigma, St Louise, MO, USA). Fresh bacterial colonies were transferred in the respective medium and incubated at 37 °C overnight. The bacterial cultures were diluted to a culture density representing the log phase and µL/well were pipetted into a 96-well microtiter plate (734–2097, NunclonTM, Thermo Scientific, Waltham, MA, USA). The final cell density was 1500–15.000 colony forming units/well. The compound was diluted in 2% (v/v) DMSO in ddH2O, providing a final assay concentration of 50% of the prepared sample, since 50 µL of sample in DMSO/water were added to 50 µL bacterial culture. After adding the samples to the plates, they were incubated overnight at 37 °C and the growth was determined by measuring the optical density at λ = 600 nm (OD600) with a 1420 Multilabel Counter VICTOR3TM (Perkin Elmer, Waltham, MA, USA). A water sample was used as a reference control, growth medium without bacteria was used as a negative control and dilution series of gentamycin (A2712, Merck, Darmstadt, DE) from 32 to 0.01 µg/mL was used as positive control and visually inspected for bacterial growth. The positive control was used as a system suitability test and the results of the antimicrobial assay were only considered valid when positive control was passed. The final concentration of DMSO in the assays was ≤2% (v/v) and was known to have no effect in the tested bacteria. The data was processed using GraphPad Prism 8.

E. coli (ATCC 259233) = assay: Bacterial growth inhibition assay; format: cell-based, Escherichia coli; design: MIC (Gentamycin, unit not given): unit not given beside the values; conditions: for MIC: Escherichia coli, ATCC259233
Procedure: as §1
as §3, with “The final concentration of DMSO in the assays was ≤2% (v/v) and was known to have no effect in the tested bacteria. The data was processed using GraphPad Prism 8.” left out

E. faecalis (ATCC 29122) = assay: Bacterial growth inhibition assay; format: cell-based, Enterococcus faecialis; design: MIC (Gentamycin, unit not given): unit not given beside the values
Procedure: as §1, §3

S. aureus (ATCC 25923) = assay: Bacterial growth inhibition assay; format: cell-based, Staphylococcus aureus; design: MIC (Gentamycin, unit not given): unit not given beside the values; conditions: for MIC: Staphylococcus aureus, ATCC25923
Procedure: as §1, §3

[3] = test system: HCT116 (human colon cancer); assay: Antiproliferative assay (resazurin); format: cell-based; conditions: Homo sapiens, HCT-116; 72 h compound incubation; mean ± sem, two separate experiments
Procedure: (§4) Compounds tested in the antiproliferative assays were tested in 11 dilution points (0.02 µM–40 µM or 0.04 µM–80 µM). […] HCT116 cells were maintained in McCoy’s 5A media (Life Technologies, CA, USA), MDA-MB-231 cells were cultured in DMEM media (Life Technologies) with 10 mM HEPES (Life Technologies), whilst PC-3 cells were maintained in RPMI media (Life Technologies). All media were supplemented with 10% heat-inactivated fetal bovine serum (Australian source; Corning, CA, USA) and all cells were incubated at 37 °C in a humidified incubator with 5% CO2. Cells were seeded in 384-well plates (Greiner Bio-One, NC, USA) using the respective complete media. After 24 h cell seeding, compounds were added and antiproliferative activity was determined using the resazurin assay after 72 h compound incubation. Briefly, cells were incubated with 60 µM resazurin (Cayman, MI, USA) for 6 h at 37 °C and fluorescence signals were measured using a microplate reader (EnSight, PerkinElmer, Waltham, MA, USA).

[4] = test system: PC-3 (human prostate cancer); assay: Antiproliferative assay (resazurin); format: cell-based; conditions: Homo sapiens; 72 h compound incubation; mean ± sem, two separate experiments
Procedure: as §4

[5] = test system: MDA-MB-231 (human breast adenocarcinoma); assay: Antiproliferative assay (resazurin); format: cell-based; conditions: Homo sapiens, MDA-MB-231; 72 h compound incubation; mean ± sem, two separate experiments
Procedure: as §4

[6] = test system: S. epidermis (ATCC 35984); assay: Biofilm formation inhibition assay; format: cell-based, Staphylococcus epidermidis; conditions: inhibition of biofilm formation
Procedure: as §1
For testing the inhibition of biofilm formation, the biofilm-producing Staphylococcus epidermidis (ATCC 35984) was grown in Tryptic Soy Broth (TSB, 105459, Merck, Kenilworth, NJ, USA) overnight at 37 °C. The overnight culture was diluted in fresh medium with 1% glucose (D9434, Sigma) before being transferred to a 96-well microtiter plate; 50 µL/well were incubated overnight with 50 µL of the test compound dissolved in 2% (v/v) DMSO aq. added in duplicates. The bacterial culture was removed from the plate and the plate was washed with tap water. The biofilm was fixed at 65 °C for 1 h before 70 µL 0.1% crystal violet (115940, Millipore, Burlington, MA, USA) was added to the wells for 10 min of incubation and 70 µL of 70% ethanol was then added to each well and the plate incubated on a shaker for 5–10 min. Biofilm formation inhibition was assessed by the presence of violet color and measured at […] absorbance using a 1420 Multilabel Counter VICTOR3TM; 50 µL of a non-biofilm forming Staphylococcus haemolyticus (clinical isolate 8-7A, University Hospital of North Norway Tromsø, Norway) mixed in 50 µL autoclaved Milli-Q water was used as a control; 50 µL S. epidermidis mixed in 50 µL autoclaved Milli-Q water was used as the control for biofilm formation; and 50 µL TSB with 50 µL autoclaved Milli-Q water was used as a medium blank control.

[7] = Cytotoxicity assay (resazurin-based viability); format: cell-based; conditions: human, HEK293 cells, mean ± standard deviation, two separate experiments
Procedure: Fluorescence was measured using an EnSight plate reader (PerkinElmer, Waltham, MA, USA).

[8] = test system: Plasmodium falciparum 3D7 strain; assay: Antiplasmodial imaging assay; format: cell-based; conditions: P. falciparum 3D7, 72 h, mean ± standard deviation, two separate experiments; for IC50: Plasmodium falciparum
Procedure: (§5) Compounds tested in the antiproliferative assays were tested in 11 dilution points (0.02 µM–40 µM or 0.04 µM–80 µM).
(§6) Antiplasmodial activity was determined as previously described by Duffy and Avery. […] After incubation, plates were stained with 4’,6-diamidino-2-phenylindole (DAPI) in a permeabilization buffer for 5 h at rt in the dark. Plates were imaged on the Opera confocal microplate image reader (PerkinElmer).

[9] = Antiplasmodial imaging assay; format: cell-based, Plasmodium falciparum; conditions: human (HEK293) and Plasmodium falciparum (3D7), HEK293 cells versus Plasmodium falciparum 3D7 culture; HEK293 vs 3D7; read-out: SI (selectivity index = cytotoxicity in HEK293/activity in 3D7)
Procedure: as §5, §6

[10] = test system: E. faecalis, E. coli, P. aeruginosa, S. aureus, Streptococcus agalactiae and S. epidermis; assay: Antimicrobial and biofilm inhibition assays, whole panel of tested strains; format: cell-based; conditions: five bacterial strains and biofilm formation; tested up to 100 µM
Procedure: as §1, §2

Compound	MIC (Gentamycin, unit not given) [1]	MIC (Gentamycin, unit not given) ([2]; reference compound)	MIC (Gentamycin, unit not given) (E. coli (ATCC 259233); reference compound)	MIC (Gentamycin, unit not given) (E. faecalis (ATCC 29122); reference compound)	MIC (Gentamycin, unit not given) (S. aureus (ATCC 25923); reference compound)	IC50 [3] [nM]	IC50 [4] [nM]	IC50 [5] [nM]	MIC [2] [µM]	MBIC [6] [µM]	IC50 at 72 h [7] [nM]	IC50 [8] [nM]	selectivity ratio at 72 h [9]	MIC (E. coli (ATCC 259233)) [µM]	MIC (E. faecalis (ATCC 29122); Enterococcus faecalis, ATCC29122) [µM]	MIC (S. aureus (ATCC 25923)) [µM]	activity against any of the tested strains [10]	3D7 IC50 [8]	melting point [°C]
gentamycin [reference compound]	0.25	4	0.13	8	0.06	–	–	–	–	–	–	–	–	–	–	–	–	–	–
Cn1cc2c3ccccc3nc-2c2ccccc21 [Isocryptolepine (3a), isocryptolepine]	–	–	–	–	–	667 ± 45	1821 ± 7	695 ± 130	100 (≈ 23.2 µg/mL)	100	2070 ± 70	1210 ± 84	1.7	100 (≈ 23.2 µg/mL)	100 (≈ 23.2 µg/mL)	100 (≈ 23.2 µg/mL)	–	–	–
COc1cnc2cccc3c2c1Nc1ccccc1-3 [Compound 4b, 6-methoxy-7H-pyrido[4,3,2-gh]phenanthridine]	–	–	–	–	–	166 ± 16	24 ± 3	1000 ± 297	75 (≈ 18.6 µg/mL)	–	3657 ± 2	866 ± 2	4.2	50 (≈ 12.4 µg/mL)	–	75 (≈ 18.6 µg/mL)	–	–	–
COC1=CN(C)c2cccc3c2c1nc1ccccc13 [Compound 8b, 6-Methoxy-4-methyl-4H-pyrido[4,3,2-gh]phenanthridine]	–	–	–	–	–	871 ± 172	4540 ± 361	814 ± 162	–	–	5057 ± 45	1550 ± 27	3.3	–	–	–	complete loss of activity	–	–
c1ccc2c(c1)[nH]c1ccc3ncccc3c12 [Compound 9a, 7H-Pyrido[2,3-c]carbazole]	–	–	–	–	–	20000	17800	21500	100 (≈ 21.8 µg/mL)	100	> 80000	6825 ± 61	> 11.7	–	–	–	–	little to no activity	204 to 205
